Measured values reported in ChEMBL document CHEMBL3232722, “Synthesis and kinase inhibitory activity of new sulfonamide derivatives of pyrazolo[4,3-e][1,2,4]triazines” (Eur J Med Chem, 2014).
The source made the active and inactive calls. No cut-off for these calls is given here.

How the values were obtained:
MCF7 [1] = experiment: In vitro antiproliferative activity against human MCF7 cells assessed as decrease cell viability after 24 hrs by MTT assay; assay type: functional, cell-based; settings: for IC50: MCF7, 24 h
MDA-MB-231 [2] = experiment: In vitro antiproliferative activity against human MDA-MB-231 cells assessed as decrease in cell vaibility after 24 hrs by MTT assay; assay type: functional, cell-based; settings: for IC50: MDA-MB-231, 24 h
K562 [3] = experiment: In vitro antiproliferative activity against human K562 cells assessed as decrease in cell viability after 24 hrs by MTT assay; assay type: functional, cell-based; settings: for IC50: K562, 24 h
[4] = (§1) In vitro antiproliferative activity against human BV173 cells assessed as decrease in cell viability after 24 hrs by MTT assay; assay type: functional, cell-based; settings: BV-173, 24 h
BV-173 = experiment: as §1; assay type: functional, cell-based
HL-60 = experiment: In vitro antiproliferative activity against human HL60 cells assessed as decrease in cell viability after 24 hrs by MTT assay; assay type: functional, cell-based; settings: for IC50: HL-60, 24 h, read-out: IC50
CCRF-CEM = experiment: In vitro antiproliferative activity against human CCRF-CEM cells assessed as decrease in cell viability after 24 hrs by MTT assay; assay type: functional, cell-based
MCF7 [5] = experiment: Cytostatic activity against human MCF7 cells assessed as decrease in [3H]thymidine incorporation into DNA after 24 hrs by liquid scintillation counting analysis; assay type: functional, cell-based
MDA-MB-231 [6] = experiment: Cytostatic activity against human MDA-MB-231 cells assessed as decrease in [3H]thymidine incorporation into DNA after 24 hrs by liquid scintillation counting analysis; assay type: functional, cell-based
[7] = biological target: T1, Tyrosine-protein kinase ABL1 (Homo sapiens, UniProt P00519); experiment: Inhibition of recombinant Abl kinase (unknown origin) expressed in Sf9 cells using GGEAIYAAPFKK as substrate in presence of [gamma33P]ATP
[8] = biological target: T1, Tyrosine-protein kinase ABL1; experiment: Inhibition of recombinant Abl kinase (unknown origin) expressed in Sf9 cells assessed as residual enzyme activity using GGEAIYAAPFKK as substrate at 10 uM in presence of [gamma33P]ATP
[9] = biological target: T1, Tyrosine-protein kinase ABL1; experiment: Inhibition of recombinant Abl kinase (unknown origin) expressed in Sf9 cells assessed as residual enzyme activity using GGEAIYAAPFKK as substrate at 25 uM in presence of [gamma33P]ATP
[10] = biological target: T1, Tyrosine-protein kinase ABL1; experiment: Inhibition of recombinant Abl kinase (unknown origin) expressed in Sf9 cells assessed as residual enzyme activity using GGEAIYAAPFKK as substrate at 50 uM in presence of [gamma33P]ATP
[11] = biological target: Cyclin-dependent kinase 2/cyclin E1 (Homo sapiens, UniProt P24941); experiment: Inhibition of CDK2/cyclin E (unknown origin) expressed in Sf9 cells using histone H1 as substrate in presence of [gamma33P]ATP
[12] = biological target: Casein kinase II subunit alpha (Homo sapiens, UniProt P68400); experiment: Inhibition of CK2alpha1 (unknown origin) using casein as substrate in presence of [gamma33P]ATP
K562 [13] = experiment: Induction of apoptosis in human K562 cells assessed as increase in sub-diploid cell population at 10 to 100 uM after 24 hrs by propidium iodide staining based flow cytometry; assay type: functional
[14] = biological target: T2, Bcr/Abl fusion protein (Homo sapiens) (UniProt P00519+P11274); experiment: Inhibition of Bcr/Abl kinase in human K562 cells assessed as decrease in STAT5 phosphorylation at Tyr694 after 1 hr by immunoblot analysis; assay type: cell-based
[15] = biological target: T1, Tyrosine-protein kinase ABL1; experiment: Inhibition of Abl kinase tyrosine phosphorylation in human K562 cells at 1 to 100 uM after 1 hr by immunoblot analysis; assay type: cell-based
[16] = biological target: T2, Bcr/Abl fusion protein (Homo sapiens); experiment: Inhibition of Bcr/Abl kinase tyrosine phosphorylation in human K562 cells at 1 to 100 uM after 1 hr by immunoblot analysis; assay type: cell-based
K562 [17] = experiment: Inhibition of tyrosine phosphorylation of protein with molecular weight between 40 and 60 kDa in human K562 cells at 1 to 100 uM after 1 hr by immunoblot analysis; assay type: functional, cell-based

T1 sequence (P00519 whole entry): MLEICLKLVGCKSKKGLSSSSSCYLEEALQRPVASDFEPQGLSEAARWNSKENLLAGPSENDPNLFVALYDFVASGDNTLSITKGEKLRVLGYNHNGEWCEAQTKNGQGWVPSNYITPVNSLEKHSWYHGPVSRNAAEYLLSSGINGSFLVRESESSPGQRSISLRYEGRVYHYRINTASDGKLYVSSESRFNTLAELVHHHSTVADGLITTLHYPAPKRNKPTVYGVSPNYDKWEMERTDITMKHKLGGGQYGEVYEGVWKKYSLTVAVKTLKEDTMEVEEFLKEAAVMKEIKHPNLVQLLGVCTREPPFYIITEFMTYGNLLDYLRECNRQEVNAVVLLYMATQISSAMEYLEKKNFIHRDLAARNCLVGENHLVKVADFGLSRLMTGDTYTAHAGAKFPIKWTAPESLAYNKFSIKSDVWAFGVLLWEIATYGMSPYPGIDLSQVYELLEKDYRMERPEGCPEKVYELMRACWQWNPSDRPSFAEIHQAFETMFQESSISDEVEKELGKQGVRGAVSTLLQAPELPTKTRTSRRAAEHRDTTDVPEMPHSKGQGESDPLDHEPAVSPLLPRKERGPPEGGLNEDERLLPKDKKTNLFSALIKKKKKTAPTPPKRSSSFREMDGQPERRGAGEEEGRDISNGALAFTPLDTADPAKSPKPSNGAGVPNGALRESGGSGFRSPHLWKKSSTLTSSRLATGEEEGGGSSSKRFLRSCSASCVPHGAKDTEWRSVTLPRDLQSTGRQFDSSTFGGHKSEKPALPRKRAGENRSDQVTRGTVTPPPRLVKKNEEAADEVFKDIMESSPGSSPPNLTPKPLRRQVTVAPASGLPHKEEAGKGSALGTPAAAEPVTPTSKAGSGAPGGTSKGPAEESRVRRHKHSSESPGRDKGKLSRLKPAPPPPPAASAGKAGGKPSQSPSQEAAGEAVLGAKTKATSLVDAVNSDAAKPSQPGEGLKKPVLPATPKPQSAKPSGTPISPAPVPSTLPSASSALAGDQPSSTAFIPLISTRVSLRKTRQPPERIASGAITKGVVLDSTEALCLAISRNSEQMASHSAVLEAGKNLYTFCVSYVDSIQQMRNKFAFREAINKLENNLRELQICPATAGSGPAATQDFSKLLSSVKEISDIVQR
Sequence of Casein kinase II subunit alpha (P68400 whole entry): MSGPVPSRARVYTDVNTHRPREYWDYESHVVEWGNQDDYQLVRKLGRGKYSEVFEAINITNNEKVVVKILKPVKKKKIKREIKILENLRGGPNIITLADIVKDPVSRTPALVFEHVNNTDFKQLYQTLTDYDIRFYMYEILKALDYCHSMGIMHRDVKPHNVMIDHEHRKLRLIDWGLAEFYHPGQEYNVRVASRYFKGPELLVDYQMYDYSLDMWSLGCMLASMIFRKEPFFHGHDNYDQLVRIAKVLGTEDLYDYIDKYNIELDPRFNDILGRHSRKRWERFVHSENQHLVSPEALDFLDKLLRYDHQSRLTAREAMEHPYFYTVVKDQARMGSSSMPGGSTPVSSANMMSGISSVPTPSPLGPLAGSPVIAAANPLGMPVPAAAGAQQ
T2 sequence (P00519 whole entry, looked up, the tested form may be a part): as the sequence (P00519 whole entry) above
T2 sequence (P11274 whole entry, looked up, the tested form may be a part): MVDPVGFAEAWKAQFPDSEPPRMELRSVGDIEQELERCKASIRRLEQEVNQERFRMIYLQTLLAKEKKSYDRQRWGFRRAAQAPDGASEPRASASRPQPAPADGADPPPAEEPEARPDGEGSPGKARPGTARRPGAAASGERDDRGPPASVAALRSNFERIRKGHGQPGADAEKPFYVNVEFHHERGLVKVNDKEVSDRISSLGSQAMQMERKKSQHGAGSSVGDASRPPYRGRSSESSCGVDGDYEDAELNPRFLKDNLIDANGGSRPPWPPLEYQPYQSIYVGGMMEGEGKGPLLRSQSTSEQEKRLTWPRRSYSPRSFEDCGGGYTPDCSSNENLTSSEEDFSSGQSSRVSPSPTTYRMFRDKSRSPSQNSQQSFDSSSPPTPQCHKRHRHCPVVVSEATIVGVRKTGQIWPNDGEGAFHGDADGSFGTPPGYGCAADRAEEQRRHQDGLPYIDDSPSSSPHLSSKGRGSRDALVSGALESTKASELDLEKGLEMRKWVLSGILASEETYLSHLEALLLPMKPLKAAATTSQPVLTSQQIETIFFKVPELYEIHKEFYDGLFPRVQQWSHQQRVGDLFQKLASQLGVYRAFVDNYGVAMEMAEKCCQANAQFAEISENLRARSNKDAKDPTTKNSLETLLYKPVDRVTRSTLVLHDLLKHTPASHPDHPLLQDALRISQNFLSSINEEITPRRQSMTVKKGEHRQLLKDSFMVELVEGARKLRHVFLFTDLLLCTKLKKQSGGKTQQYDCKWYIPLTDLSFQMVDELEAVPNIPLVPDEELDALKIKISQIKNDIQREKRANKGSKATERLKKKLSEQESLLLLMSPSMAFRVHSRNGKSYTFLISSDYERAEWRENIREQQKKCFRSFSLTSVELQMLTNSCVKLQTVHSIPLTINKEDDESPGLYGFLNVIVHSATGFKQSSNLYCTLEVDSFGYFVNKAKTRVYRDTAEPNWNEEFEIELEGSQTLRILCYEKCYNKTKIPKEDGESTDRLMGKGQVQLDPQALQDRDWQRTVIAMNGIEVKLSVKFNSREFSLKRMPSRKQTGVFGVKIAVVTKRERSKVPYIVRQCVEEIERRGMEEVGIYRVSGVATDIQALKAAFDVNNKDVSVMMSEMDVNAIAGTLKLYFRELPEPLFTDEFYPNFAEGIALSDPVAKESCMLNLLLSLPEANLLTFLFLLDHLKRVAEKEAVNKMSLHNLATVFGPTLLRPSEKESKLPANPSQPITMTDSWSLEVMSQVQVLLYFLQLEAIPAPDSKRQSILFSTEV

SMILES | inhibition (MCF7 [1]) | IC50 (MCF7 [1]) [µM] | inhibition (MDA-MB-231 [2]) | IC50 (MDA-MB-231 [2]) [µM] | inhibition (K562 [3]) | IC50 (K562 [3]) [µM] | IC50 [4] [µM] | inhibition (BV-173) | inhibition (HL-60) | IC50 (HL-60) [µM] | IC50 (CCRF-CEM) [µM] | inhibition (CCRF-CEM) | IC50 (MCF7 [5]) [µM] | inhibition (MCF7 [5]) | IC50 (MDA-MB-231 [6]) [µM] | inhibition (MDA-MB-231 [6]) | IC50 [7] [µM] | Activity [8] [%] | IC50 [11] [µM] | IC50 [12] [µM] | further results
Cc1nn(C)c2nnc(Nc3ccc(S(N)(=O)=O)cc3)nc12 | Dose-dependent effect | > 200 | Dose-dependent effect | > 200 | Dose-dependent effect | 106 | 45 | Dose-dependent effect | Dose-dependent effect | 58 | 50 | Dose-dependent effect | > 200 | Dose-dependent effect | > 200 | Dose-dependent effect | 33 | 95 | > 50 | > 50 | Activity [9]: 63%; Activity [10]: 33%
Cc1nn(C)c2nnc(Nc3ccc(S(=O)(=O)N4CCN(C)CC4)cc3)nc12 | Dose-dependent effect | 102 | Dose-dependent effect | 99 | Dose-dependent effect | 66 | 40 | Dose-dependent effect | Dose-dependent effect | 49 | 36 | Dose-dependent effect | 87 | Dose-dependent effect | 80 | Dose-dependent effect | > 50 | 60 | > 50 | > 50 | Activity [9]: 55%; Activity [10]: 51%
Cc1nn(C)c2nnc(Nc3ccc(S(=O)(=O)NCCO)cc3)nc12 | Dose-dependent effect | > 200 | Dose-dependent effect | > 200 | Dose-dependent effect | 100 | 41 | Dose-dependent effect | Dose-dependent effect | 42 | 49 | Dose-dependent effect | > 200 | Dose-dependent effect | > 200 | Dose-dependent effect | 39 |  | > 50 | > 50 | 
Cc1nn(C)c2nnc(Nc3ccc(S(=O)(=O)N4CCOCC4)cc3)nc12 | Dose-dependent effect | > 200 | Dose-dependent effect | > 200 | Dose-dependent effect | 90 | 58 | Dose-dependent effect | Dose-dependent effect | 39 | 69 | Dose-dependent effect | > 200 | Dose-dependent effect | > 200 | Dose-dependent effect | > 25 | 88 | > 25 | > 25 | Activity [9]: 80%
Cc1nn(C)c2nnc(Nc3ccc(S(=O)(=O)NCC(O)CO)cc3)nc12 (stereo unspecified) | Dose-dependent effect | 200 | Dose-dependent effect | 140 | Dose-dependent effect | 101 | 42 | Dose-dependent effect | Dose-dependent effect | 44 | 57 | Dose-dependent effect | 130 | Dose-dependent effect | 130 | Dose-dependent effect | 34 | 81 | > 50 | > 50 | Activity [9]: 56%; Activity [10]: 45%
Cc1nn(C)c2nnc(Nc3ccc(S(=O)(=O)NC(CO)C(C)C)cc3)nc12 (stereo unspecified) | Dose-dependent effect | > 200 | Dose-dependent effect | > 200 | Dose-dependent effect | > 200 | 58 | Dose-dependent effect | Dose-dependent effect | 40 | 54 | Dose-dependent effect | > 200 | Dose-dependent effect | > 200 | Dose-dependent effect | > 50 | 80 | > 50 | > 50 | 
O=C(O)CCCc1ccc(N(CCCl)CCCl)cc1 [CHLORAMBUCIL] |  | 97 |  | 93 |  | 84 | 34 |  |  | 38 | 21 |  | 56 |  | 49 |  |  |  |  |  | 
O=C(O)c1ccc2c(c1)nc(Nc1cccc(Cl)c1)c1ccncc12 [SILMITASERTIB] |  |  |  |  |  |  |  |  |  |  |  |  |  |  |  |  |  |  | 1.8 |  | 
Cc1nn(C)c2nnc(Nc3ccc(S(=O)(=O)NCCN)cc3)nc12 | Dose-dependent effect | 126 | Dose-dependent effect | 120 | Dose-dependent effect | 77 | 39 | Dose-dependent effect | Dose-dependent effect | 42 | 56 | Dose-dependent effect | 85 | Dose-dependent effect | 90 | Dose-dependent effect | 15 |  | 34.9 | > 50 | Activity (K562 [13]): inactive; inhibition [14]: Dose-dependent effect; inhibition [15]: inactive; inhibition [16]: inactive; inhibition (K562 [17]): inactive
Cc1nn(C)c2nnc(Nc3ccc(S(=O)(=O)N4CCCCC4)cc3)nc12 | Dose-dependent effect | 200 | Dose-dependent effect | 140 | Dose-dependent effect | 98 | 36 | Dose-dependent effect | Dose-dependent effect | 24 | 30 | Dose-dependent effect | 150 | Dose-dependent effect | 135 | Dose-dependent effect | > 25 | 100 | > 25 | > 25 | Activity [9]: 98%
Cc1nn(C)c2nnc(Nc3ccc(S(=O)(=O)NCCN4CCOCC4)cc3)nc12 | Dose-dependent effect | 146 | Dose-dependent effect | 125 | Dose-dependent effect | 96 | 39 | Dose-dependent effect | Dose-dependent effect | 41 | 64 | Dose-dependent effect | 99 | Dose-dependent effect | 120 | Dose-dependent effect | 20 |  | > 50 | > 50 | 
Cc1nn(C)c2nnc(Nc3ccc(S(=O)(=O)N4CCCC4)cc3)nc12 | Dose-dependent effect | > 200 | Dose-dependent effect | > 200 | Dose-dependent effect | 102 | 47 | Dose-dependent effect | Dose-dependent effect | 56 | 30 | Dose-dependent effect | > 200 | Dose-dependent effect | > 200 | Dose-dependent effect | > 50 | 100 | > 50 | > 50 | Activity [9]: 100%; Activity [10]: 90%
